{"source": "patent US6800659B2", "about": "“Compounds for modulating cell proliferation” (HSC Research and Development Limited Partnership, priority 2000, dated 2004)", "key": {"[1]": {"system": "Philadelphia positive ALL, AML and lymphoma", "assay": "High dose in vitro (ex vivo) purging assays, summary", "assay_type": "cell-based", "from_the_text": "[…] Cancer cell death was effected by the induction of apoptosis. Accordingly, in another aspect of the invention, there is provided a method for killing cancer cells by ex vivo treatment of bone marrow from a patient with cancer with a compound of the invention, preferably CR4 and CR11 and then re-introducing the treated (or purged) bone marrow into the patient."}, "[2]": {"system": "Ph+ ALL cells", "assay": "In vitro purging of Philadelphia positive ALL with CR11", "assay_type": "cell-based, human", "conditions": "50 μM, 7 hours exposure (FIG. 22)", "protocol": "For the purging assay, the cells were resuspended in complete medium with or without CR11 as indicated and incubated at 37° C., 5% CO2 for 0-7 hours. Cells were then washed thoroughly with medium to remove the CR11, resuspended and plated in 1 ml volumes, in the absence of exogenous growth factors, into 35 mm petri dishes (Nunc, Gibco) containing alpha MEM (Gibco) plus 20% FCS (Cansera Rexdale, ON.) in 0.9% (vol/vol) methylcellulose (Fluka, Switzerland). Cultures were set at 37° C., 5% CO2 in a humidified atmosphere. Colonies consisting of more than 20 cells were counted at 9 days or earlier using an inverted microscope."}, "[3]": {"system": "normal bone marrow cells", "assay": "In vitro purging of normal bone marrow, then colony assay", "assay_type": "cell-based", "protocol": "Heparinized bone marrow cells were layered over Percoll (1.077 gm/ml) (Pharmacia Fine Chemical, Piscataway N.J.) and centrifuged at 400 g at 4° C. for 10 minutes to remove neutrophils and RBCs.\nFor the purging process, the cells were resuspended at 1×10^6/ml in complete medium with or without 50 μM CR4. The cells were incubated with the CR4 for two and a half hours at 37° C., 5% CO2. At the end of this period the cells were thoroughly washed in medium to remove CR4 and then cultured at 2×10^5 cells/ml in IMDM (OCl, Toronto) containing 0.9% (vol/vol) methylcellulose supplemented with 30% FCS (Cansera Rexdale, ON.) or normal human plasma, a cocktail of cytokines containing G-CSF (10 ng/ml, Amgen), IL-3 (40 U/ml, Immunex), MGF (50 ng/ml, Immunex), Etryhropoietin (2 u/ml, Epprex) or TPO (10 ng/ml, Amgen) and 5×10^−5M b-2-mercaptoethanol. The culture mixture was plated in 1 ml volumes into 35 mm petri dishes and incubated at 37° C., 5% CO2 in a humidified atmosphere. All cultures were evaluated at 14 days for the number of BFU-E colonies (defined as aggregates of more than 500 hemaglobinized cells or, 3 or more erythroid subcolonies), CFU-C colonies (defined as granulocyte or monocyte-macrophage cells or both) and CFU-GEMM colonies (a mixed population comprising of all elements).\nFor the purging process, the cells were resuspended at 1×10^6/ml in complete medium with or without 50 μM CR11. The cells were incubated with the tryrphostin for seven hours at 37° C., 5% CO2. At the end of this period the cells were thoroughly washed in medium to remove CR11 and then cultured at 2×10^5 cells/ml in IMDM (OCl, Toronto) containing 0.9% (vol/vol) methylcellulose supplemented with 30% FCS (Cansera Rexdate, ON.) or normal human plasma, a cocktail of cytokines containing G-CSF (10 ng/ml, Amgen), IL-3 (40 U/ml, Immunex), MGF (50 ng/ml, Immunex), Erythropoietin (2 u/ml, Epprex) or TPO (10 ng/ml, Amgen) and 5×10^−5M β-2-mercaptoethanol. The culture mixture was plated in 1 ml volumes into 35 mm petri dishes and incubated at 37° C., 5% CO2 in a humidified atmosphere. All cultures were evaluated at 14 days for the number of BFU-E colonies (defined as aggregates of more than 500 hemoglobinized cells or, 3 or more erythroid subcolonies), CFU-C colonies (defined as granulocyte or monocyte-macrophage cells or both) and CFU-GEMM colonies (a mixed population comprising of all elements)."}, "[4]": {"system": "acute lymphoblastic leukemia, Philadelphia positive ALL, acute myeloid leukemia, myeloma and B-lineage lymphoma", "assay": "Growth of cancer cells in culture, summary over cell types", "assay_type": "cell-based", "conditions": "for effectiveness against a variety of cell types (Acute Lymphoblastic Leukemia, Philadelphia positive Leukemia, Acute Myeloid Leukemia): in culture"}, "[5]": {"system": "Philadelphia positive acute lymphoblastic leukemia (Ph+ ALL) cells", "assay": "Colony growth of Philadelphia positive ALL cells in methylcellulose culture", "assay_type": "cell-based, human", "protocol": "(§1) Ph+ ALL cells were plated in 1 ml volumes, in the absence of exogenous growth factors, into 35 mm petri dishes (Nunc, Gibco) containing alpha MEM (Gibco) plus 10% FCS (Cansera Rexdale, ON.) in 0.9% (vol/vol) methylcellulose (Fluka, Switzerland) with the indicated concentrations of CR4. Cultures were set at 37° C., 5% CO2 in a humidified atmosphere. Colonies consisting of more than 20 cells were counted at 12 days or earlier using an inverted microscope.\nas §1, with “ALL” for “Ph+ ALL”, “20%” for “10%”, “and” for “with”, “compound” for “CR4.”, “atmosphere” for “atmosphere.”\nas §1, with “ALL” for “Ph+ ALL”, “20%” for “10%”, “ON)” for “ON.)”, “0.90%” for “0.9%”, “and” for “with”, “compound.” for “CR4.”\nas §1, with “ALL” for “Ph+ ALL”, “20%” for “10%”, “and” for “with”, “CR24.” for “CR4.”, “9” for “12”\nas §1, with “ALL” for “Ph+ ALL”, “20%” for “10%”, “and” for “with”, “CR19.” for “CR4.”, “9” for “12”"}, "[6]": {"system": "normal bone marrow cells", "assay": "CFU-GEMM assay: normal bone marrow differentiation in culture", "assay_type": "cell-based", "conditions": "for inhibition of BFU-E colony formation: 20 μM", "protocol": "(§2) The CFU-GEMM assay was performed according to Fauser and Messner (1978, Blood, 52(6) 143-8) and Messner and Fausser (1980, Blut, 41(5) 327-33) with some variations. In brief, heparinized bone marrow cells were layered over Percoll (1.077 gm/ml) (Pharmacia Fine Chemical, Piscataway N.J.) and centrifuged at 400 g at 4° C. for 10 minutes to remove neutrophils and RBCs. The fractionated BM cells at 2×10^5 cells/ml were cultured in IMDM (OCl, Toronto) containing 0.9% (vol/vol) methylcellulose supplemented with 30% FCS (Cansera Rexdale, ON.) or normal human plasma, a cocktail of cytokines containing G-CSF (10 ng/ml, Amgen), IL-3 (40 U/ml, Immunex), MGF (50 ng/ml, Immunex), Erythropoietin (2 u/ml, Epprex) or TPO (10 ng/ml, Amgen), 5×10^−5M β-2-mercaptoethanol and the specified concentration of CR4. The culture mixture was plated in 1 ml volumes into 35 mm petri dishes and incubated at 37° C., 5% CO2 in a humidified atmosphere. All cultures were evaluated at 14 days for the number of BFU-E colonies (defined as aggregates of more than 500 hemoglobinized cells or, 3 or more erythroid subcolonies), OFU-GM colonies (defined as granulocyte or monocyte-macrophage cells or both), CFU-Meg colonies (comprising 4 or more megakaryocytes) and CFU-GEMM colonies (a mixed population comprising of all elements).\nas §2, with “1243-8)” for “143-8)”, “concentrations” for “concentration”, “CR19.” for “CR4.”, “hemaglobinized” for “hemoglobinized”, “subcolonies) and CFU-C” for “subcolonies), OFU-GM”, “both).” for “both), CFU-Meg colonies (comprising 4 or more megakaryocytes) and CFU-GEMM colonies (a mixed population comprising of all elements).”\nas §2, with “1243-8)” for “143-8)”, “variations (British Journal of Haematology, 1992, 80, p40-48).” for “variations.”, “test compound.” for “CR4.”, “CO2,” for “CO2”, “subcolonies) and CFU-C” for “subcolonies), OFU-GM”, “both).” for “both), CFU-Meg colonies (comprising 4 or more megakaryocytes) and CFU-GEMM colonies (a mixed population comprising of all elements).”"}, "[7]": {"conditions": "low nanomolar doses, long term exposure"}}}
{"smiles": "COc1cc(/C=C/C=C(\\C#N)C(=O)NCc2ccc(O)c(O)c2)cc(OC)c1O", "note": "[CR11, (EE)-2-(3,4-Dihydroxybenzylaminocarbonyl)-3-(3,5-dimethoxy-4-hydroxystyryl)acrylonitrile]", "values": [{"measurement": "effectiveness as ex vivo purging agents", "setting": "[1]", "value": "effective"}, {"measurement": "killing of Ph+ ALL cells", "setting": "[2]", "value": "complete killing"}, {"measurement": "BFU-E, CFU-GEMM and CFU-C colonies", "setting": "[3]; seven hours exposure to 50 μM (FIG. 21)", "value": "all normal"}, {"measurement": "inhibition of colony formation", "setting": "[3]; seven hours exposure to 50 μM, colonies at 14 days (FIG. 21)", "value": "did not result in any significant inhibition"}, {"measurement": "effectiveness against a variety of cell types (Acute Lymphoblastic Leukemia, Philadelphia positive Leukemia, Acute Myeloid Leukemia)", "setting": "[4]", "value": "highly effective"}]}
{"smiles": "N#C/C(=C\\C=C\\c1ccc(O)c(O)c1)C(N)=O", "note": "[CR17, (E,E)-2-Aminocarbonyl-3-(3,4-dihydroxystyryl)acrylonitrile]", "values": [{"measurement": "inhibition of cell growth", "setting": "[5]; 1-2.5 μM, Example 42, FIG. 8", "value": "significant inhibition"}, {"measurement": "inhibition of cell growth", "setting": "[5]; 1-2.5 μM, Example 43, FIG. 9", "value": "significant inhibition"}, {"measurement": "inhibition of BFU-E colony formation", "setting": "[6]; 14 days (FIG. 13)", "value": "caused inhibition"}]}
{"smiles": "N#C/C(=C\\C=C\\c1ccccc1)C(=O)NCc1ccc(O)c(O)c1", "note": "[CR19, (E,E)-2-(3,4-Dihydroxybenzylaminocarbonyl)-3-styrylacrylonitrile]", "values": [{"measurement": "effectiveness against Ph+ ALL cells", "setting": "[5]; nanomolar concentrations, colonies at 9 days (FIG. 11)", "value": "highly effective"}, {"measurement": "CFU-C colony formation", "setting": "[6]; 2.5 μM, 14 days (FIG. 12)", "value": "boosted"}, {"measurement": "inhibition of the development of BFU-E colonies", "setting": "[6]; 2.5 μM, 14 days (FIG. 12)", "value": "significant inhibition"}, {"measurement": "BFU-E colonies", "setting": "[6]; 5 μM, 14 days (FIG. 12)", "value": "virtually absent"}, {"measurement": "CFU-C colony formation (stimulatory effect)", "setting": "[6]; 5 μM, 14 days (FIG. 12)", "value": "stimulatory effect disappeared"}, {"measurement": "normal cell growth and differentiation", "setting": "[6]; [7]", "value": "unaffected"}, {"measurement": "effectiveness against a variety of cell types (Acute Lymphoblastic Leukemia, Philadelphia positive Leukemia, Acute Myeloid Leukemia)", "setting": "[4]", "value": "highly effective"}, {"measurement": "toxicity to cancer cells", "setting": "[4]; [7]", "value": "highly toxic"}]}
{"smiles": "N#C/C(=C\\C=C\\c1ccc(O)c(O)c1)C(=O)NCc1ccc(O)c(O)c1", "note": "[CR21, (E,E)-2(3,4-Dihydroxybenzylaminocarbonyl)-3-(3,4-dihydroxystyryl)acrylonitrile]", "values": [{"measurement": "inhibition of cell growth", "setting": "[5]; 5 μM, Example 42, FIG. 8", "value": "inhibited cell growth"}, {"measurement": "inhibition of cell growth", "setting": "[5]; 1-2.5 μM, Example 43, FIG. 9", "value": "significant inhibition"}, {"measurement": "inhibition of BFU-E colony formation", "setting": "[6]; 14 days (FIG. 13)", "value": "caused inhibition"}]}
{"smiles": "COc1cc(/C=C/C=C(\\C#N)C(=O)NCCO)cc(OC)c1O", "note": "[CR24, (E,E)-2-(β-Ethanolaminocarbonyl)-3-(3,5-dimethoxy-4-hydroxystyryl)acrylonitrile]", "values": [{"measurement": "inhibition of cell growth", "setting": "[5]; between 2.5 and 5 μM, colonies at 9 days (FIG. 10)", "value": "virtually complete inhibition"}, {"measurement": "effectiveness against Ph+ ALL cells", "setting": "[5]; concentrations as low as 0.5 μM, colonies at 9 days (FIG. 10)", "value": "effective"}, {"measurement": "inhibition of bone marrow colony formation", "setting": "[6]; either 10 or 20 μM, 14 days (FIG. 13)", "value": "minimal inhibition"}]}
